Molecules are shown by their SMILES.

The compound `O=C(O)c1cn(CC2CCCC2)c2cc(Cl)ccc12` returned a melting point of 181 to 184 °C.

Consider `CCOC(=O)CSC1=C(C=O)CCc2c(C(=O)OCC)sc(SC)c21`, for which the melting point lay in the range of 102 to 103 °C. In turn, `N#Cc1c(Cl)cccc1C(F)(F)F` came in with a melting point of 45 to 47 °C. Regarding `COc1cc(OCc2ccc3ccccc3c2)cc(C(=O)c2nccs2)c1`, the melting point lay in the range of 105 to 106 °C.

In turn, `O=C(Nc1cc(F)cc2c(Cl)ccnc12)c1c(Cl)cccc1Cl` registered a melting point of 200 to 213 °C. The compound `CN1CCN(c2cccc(Nc3nc4c(-c5cnn(-c6ccc(F)cc6)c5)cccn4n3)c2)CC1` returned a melting point of 216 to 218 °C. Take `OCCCn1c(C2CCCCC2)nc2cc(Cl)ccc21`: the melting point worked out at 95 °C. In the case of `CCn1cc(C(=O)O)c(=O)c2cc(F)c(N[C@@H]3CCC[C@@H]3N)cc21` (relative stereo), the melting point was in the range of 233 to 235 °C. `Brc1ccc(-c2coc(-c3ccccn3)n2)cn1` showed a melting point of 85 °C. `O=c1[nH]c2ccc(C#CCCN3CCC(Cc4ccccc4)CC3)cc2[nH]1` had a melting point of 221 to 223 °C.

As to `COC(=O)C[C@H](O)CC(=O)C=Cc1c(-c2ccc(F)cc2)c(-c2ccccc2)c(C(=O)NCc2ccc(F)cc2)n1C(C)C`, the melting point lay in the range of 62 to 63 °C. Compound `Nc1nc(-c2ccc(CCCCN3CCN(c4ccccc4)CC3)s2)cs1` gave a melting point of 165 to 167 °C.

`Cc1ccc(Cl)cc1NS(=O)(=O)c1cc(S(=O)(=O)Nc2cc(Cl)ccc2C)c2ccccc2c1` displayed a melting point of 125 to 127 °C.

Turning to `CCCN(CCC)C(=O)CNc1cc(C)nc(-c2ccccc2)n1`, the melting point lay within 107 to 108 °C. Next, `NC1CN(C(=O)Nc2ccc(C(F)(F)F)cc2)N=C1c1ccc(Cl)cc1` (stereo not given): 144 to 146 °C; `C[C@H](CO)Nc1nc(SCc2cccc(F)c2F)nc2[nH]c(=O)c(NCCO)nc12`: 197 to 199 °C. For the compound `COc1ccc(Cl)cc1C(=O)NCCc1ccc(Br)cc1`, the melting point was in the range of 104 to 109 °C. Next, `CN(C[C@H](O)[C@@H](O)[C@H](O)[C@H](O)CO)C(=O)c1ccc2n1Cc1ccccc1N(C(=O)c1ccc(-c3cccc4ccccc34)nc1)C2`: 165 to 167 °C. Take `CSc1c(O[C@H]2CC[C@H](NCc3ccccc3)CC2)ccc2[nH]ncc12`: the melting point was determined as 136 °C. `CC(C)Oc1cc(CCCOc2ncccc2CC(=O)O)n(Cc2ccc(Cl)cc2Cl)n1`: the melting point was in the range of 88 to 90 °C.

Compound `Cc1cccc(C)c1Oc1nc(Cl)nc(Oc2c(C)cccc2C)n1` gave a melting point of 161 to 162 °C. In turn, `CCc1cccc(C)c1CNc1cc(Br)cc2c1ncn2C` came in with a melting point of 132 to 134 °C. Regarding `CCC(CC)Nc1cc(C)nc(Nc2c(C)cc(C)cc2C)c1[N+](=O)[O-]`, the melting point lay in the range of 104 to 107 °C. Regarding `O=S(=O)(CCCCl)Nc1cccc(OCc2ccc3ccccc3n2)c1`, the melting point lay in the range of 116 to 117 °C. The compound `COC=C(C(=O)OC)c1csc2ccc(C=Cc3ccccc3)cc12` had a melting point of 180 to 181 °C.

`CC(=O)NC1(c2ccccc2Cl)CCC=CC1=O` (stereo not given) registered a melting point of 144 to 145 °C. With `COc1ccc(CC2C(=O)N(Cc3ccccc3)c3ccccc3N(C(=O)CN3C(=O)c4ccccc4C3=O)C2C)cc1` (stereo not given), the melting point fell in the range of 247 to 248 °C.

`O=C(C1CC1)N1CCC2C1CCCC2(O)c1ccc(Cl)cc1` (stereo not given) returned a melting point of 167 to 169 °C. As to `COc1ccc(-c2nc(Sc3ccccc3)[nH]c2-c2ccc(OC)cc2)cc1`, the melting point was in the range of 177 to 179 °C. Under `Cc1nccn1-c1cccc(Nc2ccc(-c3ccoc3)cc2N)c1` stands 98 to 99 °C. `CC(C)(C)C(=O)NNc1ccc([N+](=O)[O-])cc1Cl` registered a melting point of 123 °C. On to `Cn1c(=O)c2c(NC(=O)C3CCCCC3)onc2n(C)c1=O`, for which the melting point is 210 to 212 °C. `COC1OCOc2cc3c4c(cccc4c21)C(=O)N(O)C3=O` (stereo not given) displayed a melting point of 249 to 251 °C. Consider `CC(C)(C)OC(=O)N1CCc2c(oc3cc(S(=O)(=O)c4cccc(F)c4)ccc23)C1(C)C`, for which the melting point lay within 58 to 60 °C. `CC(=O)N(CC(C)C)C1NC(=O)N(c2cccs2)C(=O)N1` displayed a melting point of 138 to 139 °C. Consider `COc1ccc(CCC2OC(=O)NC2=O)cc1O` (stereo not given), for which the melting point fell in the range of 121 to 122 °C. For `CCOC(=O)c1[nH]c2cc(Cl)cc(Cl)c2c1NCC(=O)c1ccccc1Cc1ccccc1`, the melting point is 225 to 227 °C. With `O=c1[nH]cc(C(F)(F)F)cc1Br`, the melting point lay within 162 to 165 °C. `Cc1oc(-c2ccc(C(F)(F)F)cc2)nc1CCOc1c(Cl)cc(CN(O)C(N)=O)cc1Cl` yielded a melting point of 137 to 139 °C. As to `C=C(C)C(=O)Oc1ccc(S(=O)(=O)Nc2ccccc2)cc1`, the melting point lay within 101 to 102 °C. Compound `CC(Cl)(Cl)C(NC(=O)c1cccc(Cl)c1)NC(=NC#N)Nc1ccc(Cl)nc1` (stereo not given) returned a melting point of 138 to 140 °C. Take `C#CCCCC1(S(=O)(=O)c2ccc(C)cc2)SC(=O)NC1=O` (stereo not given): the melting point is 226 °C. `O=C(O)c1ccccc1C(=O)c1ccc(F)cc1F`: the melting point was in the range of 129 to 131 °C. For `COc1cccc(C(=O)NCCNC(=O)OC(C)(C)C)n1`, the melting point lay in the range of 104 to 105 °C. With `CC12C=CCC1C1CCC3=C(CCC(=O)C3)C1CC2` (stereo not given), the melting point fell in the range of 112 to 116 °C. As for `O=C1c2cc(O)ccc2OCN1CCO[N+](=O)[O-]`, the melting point stood at 80 °C.

`OC1(c2cccn2Cc2ccccc2F)CCN(Cc2ccccc2)CC1`: the melting point lay in the range of 112 to 117 °C. `CC(C)(N)c1ccc(-c2nc(Nc3cc(F)cc(F)c3)ncc2C#N)cc1` displayed a melting point of 209 °C.

For the compound `Cc1ccc(N2C(=O)C(O)=C(C(=O)c3ccc(-c4ccccc4)cc3)C2c2ccc(OC(F)(F)F)cc2)nn1` (stereo not given), the melting point is 226 to 232 °C.

In turn, `CS(=O)(=O)c1ccc(-c2cnn(Cc3cc4ccccc4s3)c(=O)c2-c2ccc(F)cc2)cc1` returned a melting point of 93 to 96 °C.

The compound `COc1ccc(C(=C/C=C/C(=O)NCCCOc2cccnc2)c2ccc(OC)cc2)cc1` displayed a melting point of 146 to 147 °C. Turning to `COc1cc(Cn2cccc3ncnc2-3)ccc1C(=O)N(C(C)C)C1CCCCC1`, the melting point is 98 to 100 °C. `CCOC(=O)c1ccc(NCCCCCCOc2ccc3ccccc3c2)cc1`: the melting point was in the range of 109 to 110 °C. Under `CCn1cc(C(=O)OCC(=O)OCC2CCCCC2)c(=O)c2ccc(C)nc21` stands 130 to 132 °C; under `O=C(O)c1ccc(-c2ccc3c(c2)CCN(CCN2CCCC2)C3=O)cc1`, 247 to 249 °C. Compound `COc1cc2c3ccc(OC)c(OC)c3n(Cc3c(Cl)cccc3Cl)c2cc1OC` displayed a melting point of 207 to 210 °C. `Nc1ccc(-c2cc(=O)cc(N3CCOCC3)o2)cc1` registered a melting point of 258 to 260 °C. Compound `CCCn1cnc2c1c(=O)n(CCCCOc1ccc(OC)cc1)c(=O)n2C` gave a melting point of 61 to 62 °C. On to `O=C(O)C(=O)c1ccc(OCC(=O)N2CCc3ccccc3C2)cc1`, for which the melting point fell in the range of 218 to 220 °C.

As for `CC(C)(C)c1ccc(C(O)CCCN2CCC(C3(O)c4ccccc4COc4ccccc43)CC2)cc1` (stereo not given), the melting point was 135 to 137 °C. In turn, `CO[C@@H]1C=C2C=C3C(=C(C)C(=O)N3C)C[C@]2(C)[C@@H](C)[C@H]1O` gave a melting point of 165 to 170 °C. Turning to `COc1cc(C(=O)c2c[nH]c(-c3cn(S(=O)(=O)c4ccccc4)c4ccccc34)n2)cc(OC)c1OC`, the melting point was 110 to 112 °C. Compound `O[C@H]1c2cc(OCc3ccc4ccccc4c3)ccc2OC[C@H]1Oc1cccnc1` (relative stereo) showed a melting point of 156 to 157 °C. `CC(C)(C)C(NC(=O)c1cccc(Cl)c1)Nc1c(Nc2ccc(C(F)(F)F)nc2)c(=O)c1=O` (stereo not given) displayed a melting point of 226 to 227 °C. `Cc1nc(N)c2nc(C)n(CCOCCCc3cccnc3)c2c1C` showed a melting point of 109 to 110 °C.

`CC(=O)C1=C(O)C(=C(C)Nc2ccccc2N)C(=O)OC1=O`: the melting point was 179 to 181 °C.

`COc1ccc(OS(=O)(=O)c2ccc(N3CCN(C)C3=O)cc2)cc1` yielded a melting point of 183 to 185 °C. Take `CCCCCCCCCCCCOC(=O)c1cccc(NC(=O)NS(=O)(=O)c2ccc(C)cc2)c1`: the melting point fell in the range of 110 to 112 °C. `CCCSc1sc(C(=O)OCC)c2c1C(=O)C(Br)CC2` (stereo not given) returned a melting point of 93 to 94 °C. As to `COc1c(Cl)ccc(-c2cc(N)c(Cl)c(C(=O)OCc3ccccc3)n2)c1Cl`, the melting point fell in the range of 107 to 108 °C.

With `COc1ccc(NS(=O)(=O)c2ccc(N3CCC(NC[C@H](O)COc4ccc(O)cc4)CC3)cc2)cc1OC`, the melting point fell in the range of 101 to 106 °C. The compound `Cc1n[nH]c2cc(-c3nn(Cc4oc5ccccc5c(=O)c4-c4cccc(F)c4)c4ncnc(N)c34)ccc12` gave a melting point of 246 to 248 °C. Next, `COc1ccc(Cl)cc1-n1c(N)nnc1-c1ccc(C(F)(F)F)cc1`: 247 to 248 °C; `O=c1[nH]c2c(c3ccccc13)c1cc(Cl)ccc1n2CC1CC1`: above 300 °C.

For the compound `O=C(O)c1ccccc1Nc1ccc(CCc2ccc(O)c(O)c2)cc1`, the melting point lay within 215 to 217 °C. Next, `NC(=O)CNC(=O)c1ccc(F)c(-c2cccc3cc(Cc4cc(F)cc(Cl)c4)sc23)c1`: 159 to 160 °C; `CC1COC(c2ccccc2)(c2ccc(Cl)nc2)O1` (stereo not given): 44 to 51 °C; `CCOC(=O)C(C(=O)OCC)C(C#N)(c1ccc(F)cc1)c1ccc(F)cc1`: 90 to 91 °C. `CCCCCCCCC=CCCCCCCCC(=O)NCCCSc1ccncc1` displayed a melting point of 50 to 50.5 °C. For `CCOC(=O)c1ccc(-c2cnc(-c3ccc(C(F)(F)F)cc3)o2)cc1`, the melting point lay in the range of 142 to 143 °C.

Compound `CCCCSc1cc(C(=O)OCC#N)cc(S(N)(=O)=O)c1Cc1ccccc1` yielded a melting point of 112 to 114 °C. Next, `CC(C)c1cccc(C(C)C)c1NC(=O)CCl`: 146 to 148 °C; `CCCCCCn1c(CN2CCC[C@H]2C(=O)O)nc2cc(-c3ccccc3-c3nn[nH]n3)ccc21`: 150 to 155 °C.

In the case of `Cc1cc(O)c(S(=O)Cc2ccccc2F)c(=O)o1` (stereo not given), the melting point lay within 115 to 116 °C. Turning to `CCCCc1nc2c(N)nc3ccccc3c2n1CCS(C)(=O)=O`, the melting point is 226 to 228 °C.

As a reminder, the melting point is the temperature, or range, at which the solid turns liquid.
